Experimental data as given in PMC10674851, “Discovery and Characterization of a Dual-Function Peptide Derived from Bitter Gourd Seed Protein Using Two Orthogonal Bioassay-Guided Fractionations Coupled with In Silico Analysis” (Pharmaceuticals, 2023).
No end group written: not given here.

Columns and labels:
[1] = target: T1, angiotensin-I-converting enzyme (ACE) from rabbit lungs (Oryctolagus cuniculus, UniProt P12822); assay: ACE inhibitory (ACEI) activity assay, HHL substrate, hippuric acid by RP-HPLC; assay type: biochemical; details: synthetic AW6, seven logarithmic concentrations, non-linear interpolation; mean ± SD, triplicate
T1 construct: angiotensin-I-converting enzyme (ACE) from rabbit lungs; purchased Sigma-Aldrich Co. (Saint Louis, MO, USA); host or cells: rabbit lung tissue
T1 sequence (P12822 34-1310): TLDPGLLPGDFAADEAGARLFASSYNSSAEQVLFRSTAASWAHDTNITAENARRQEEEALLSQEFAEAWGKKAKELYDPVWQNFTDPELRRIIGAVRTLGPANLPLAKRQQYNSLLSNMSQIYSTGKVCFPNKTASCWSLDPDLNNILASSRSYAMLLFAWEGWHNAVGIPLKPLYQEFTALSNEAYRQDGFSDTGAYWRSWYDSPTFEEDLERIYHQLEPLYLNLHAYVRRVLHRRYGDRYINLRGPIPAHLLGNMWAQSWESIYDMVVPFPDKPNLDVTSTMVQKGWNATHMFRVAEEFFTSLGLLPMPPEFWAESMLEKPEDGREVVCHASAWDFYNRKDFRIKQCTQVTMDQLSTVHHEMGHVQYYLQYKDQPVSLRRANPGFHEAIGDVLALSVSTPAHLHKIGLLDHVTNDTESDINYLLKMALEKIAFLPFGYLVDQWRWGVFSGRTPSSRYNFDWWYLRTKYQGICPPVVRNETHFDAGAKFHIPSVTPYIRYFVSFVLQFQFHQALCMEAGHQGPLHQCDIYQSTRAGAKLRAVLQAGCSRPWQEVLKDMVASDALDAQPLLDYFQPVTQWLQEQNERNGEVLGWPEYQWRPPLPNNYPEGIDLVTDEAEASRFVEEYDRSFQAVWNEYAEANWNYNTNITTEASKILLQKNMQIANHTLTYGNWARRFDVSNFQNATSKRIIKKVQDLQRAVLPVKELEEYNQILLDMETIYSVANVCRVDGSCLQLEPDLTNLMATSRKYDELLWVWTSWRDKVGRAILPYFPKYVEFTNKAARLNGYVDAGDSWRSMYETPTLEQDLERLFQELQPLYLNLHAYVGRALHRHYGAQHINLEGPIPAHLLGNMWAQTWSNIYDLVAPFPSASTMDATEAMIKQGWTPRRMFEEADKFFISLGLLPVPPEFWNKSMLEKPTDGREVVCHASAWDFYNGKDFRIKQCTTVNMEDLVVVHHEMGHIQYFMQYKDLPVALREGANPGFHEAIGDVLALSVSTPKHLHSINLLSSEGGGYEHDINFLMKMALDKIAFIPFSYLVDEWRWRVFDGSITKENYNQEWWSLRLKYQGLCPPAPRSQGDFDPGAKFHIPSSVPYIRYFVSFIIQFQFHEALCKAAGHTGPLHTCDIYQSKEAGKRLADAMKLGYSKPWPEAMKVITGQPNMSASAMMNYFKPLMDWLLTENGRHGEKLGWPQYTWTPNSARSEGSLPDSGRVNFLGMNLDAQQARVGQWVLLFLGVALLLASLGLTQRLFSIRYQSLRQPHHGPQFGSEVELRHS
Procedure: The ACEI activity was studied according to Cushman and Cheung [43], with a few modifications. First, 10 µL of the testing sample was premixed with 30 µL of hippuryl–histidine–leucine (HHL) and incubated at 37 °C for 5 min. Then, 20 µL of ACE (0.05 mU/µL) was added. Afterward, the reaction was held statically at 37 °C for 30 min and continued with shaking at 200 rpm for another 30 min. Then, 60 µL of 1 N hydrogen chloride was used to quench the reaction, and 10 µL of 0.25 µg/µL ferulic acid was mixed for an internal standard. […] The area under the curve of hippuric acid (HA) was observed using UV–Vis RP-HPLC at a wavelength of 228 nm, 1 mL/min steady flow rate, and 15 min of isocratic elution (26% ACN with 0.1% TFA in deionized water). The inhibitory activity of ACE was determined using the following equation:(2) ACE inhibitory activity %=1−HAinhibitor/HAno inhibitor×100%,
The HA(inhibitor) and HA(no inhibitor) were the areas under the curve of the hippuric acid acquired in the presence and absence of an inhibitor. The half-maximal inhibitory concentration of ACE inhibition (ACEI IC50) was calculated using a non-linear interpolation constructed with a minimum of six logarithmic concentrations of the testing sample.

[2] = target: T2, recombinant human dipeptidyl peptidase-IV (DPP4) (Homo sapiens, UniProt P27487); assay: DPP4 inhibitory (DPP4I) activity assay, GP-pNA substrate, absorbance 405 nm; assay type: biochemical; details: seven logarithmic concentrations, non-linear interpolation; mean ± SD, triplicate
T2 construct: purchased Sigma-Aldrich Co. (Saint Louis, MO, USA)
T2 sequence (P27487 whole entry): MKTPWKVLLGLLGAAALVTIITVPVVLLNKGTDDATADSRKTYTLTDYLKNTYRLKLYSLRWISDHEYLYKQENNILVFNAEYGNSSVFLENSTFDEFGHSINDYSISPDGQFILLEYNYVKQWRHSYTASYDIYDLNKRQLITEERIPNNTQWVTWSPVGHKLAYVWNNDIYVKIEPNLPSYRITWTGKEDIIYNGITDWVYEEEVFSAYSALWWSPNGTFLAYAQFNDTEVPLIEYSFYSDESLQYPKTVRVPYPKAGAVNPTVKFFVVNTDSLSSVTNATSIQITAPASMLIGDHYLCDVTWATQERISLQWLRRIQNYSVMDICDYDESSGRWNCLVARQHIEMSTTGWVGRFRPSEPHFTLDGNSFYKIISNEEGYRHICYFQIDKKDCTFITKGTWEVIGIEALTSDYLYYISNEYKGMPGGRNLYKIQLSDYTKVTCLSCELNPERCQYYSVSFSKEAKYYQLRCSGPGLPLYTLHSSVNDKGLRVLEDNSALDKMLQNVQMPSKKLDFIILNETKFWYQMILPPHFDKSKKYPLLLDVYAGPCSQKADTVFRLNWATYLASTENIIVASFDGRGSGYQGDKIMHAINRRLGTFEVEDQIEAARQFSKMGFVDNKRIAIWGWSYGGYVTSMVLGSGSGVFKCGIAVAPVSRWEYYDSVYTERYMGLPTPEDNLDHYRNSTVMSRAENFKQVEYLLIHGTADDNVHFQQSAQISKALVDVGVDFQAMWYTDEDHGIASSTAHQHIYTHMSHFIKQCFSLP
Procedure: The DPP4 inhibitory activity was determined as described by Nong, N. T. P. et al., with a few modifications. The testing samples, GP-pNA, linagliptin, and DPP4 were dissolved in 0.1 M Tris-HCl buffer, pH 8.0. Briefly, 25 µL of the testing sample was premixed with 25 µL of 1.6 mM GP-pNA and incubated at 37 °C for 10 min. Then, 50 µL of DPP4 (0.5 U/µL) was added. The reaction was continued for 60 min at 37 °C. The enzymatic reaction was quenched by adding 100 µL of 1 M sodium acetate, pH 4.0. The absorbance of pNA, as a product of the DPP4 and GP-pNA reactions, was monitored using a PowerWave XS (Biotek®, Winooski, VT, USA) 96-well microplate reader at a wavelength of 405nm. DPP4 inhibitory activity was calculated by the following equation:(3) DPP4 inhibitory activity %=1−pNAinhibitor/pNA no inhibitor×100%,
The pNA(inhibitor) and pNA(no inhibitor) were the absorbances of the pNA (λ = 405 nm) acquired in the presence and absence of an inhibitor, respectively. The half-maximal inhibitory concentration of DPP4 inhibition (DPP4I IC50) value was calculated using a non-linear interpolation for at least six logarithmic concentrations of the inhibitor.

[3] = in vivo, cited from earlier work
Description: Simultaneously, ACE2, a homologue of ACE, counteracts the vasoconstrictor effects by converting Ang-II into Ang 1–7 (a vasodilator). ACE2 also transforms Ang-I into Ang 1–9, and ACE hydrolyzes Ang 1–9 into Ang 1–7, resulting in a vasodilation effect. However, Ang 1–7 has a short half-life of only half an hour in the human body, and i ...

| Substance | IC50 [1] | IC50 [2] | half-life ([3]; human) | time of peak concentration in plasma [3] |
| --- | --- | --- | --- | --- |
| APLVSW [AW6, APLVSW] | 9.6 ± 0.3 µM | 145 ± 4.4 µM | – | – |
| Ang 1–7: vasodilator formed from Ang-II by ACE2 | – | – | half an hour | one hour |
